Columns and labels:
[1] = system: aortic aneurysm cross-sections; assay: Histology and IHC staining of aneurysm cross-sections after MB PDT at AAA induction; type: in vivo, mice
Description: The formation and progression of AAA can be characterized by the degradation of the extracellular matrix (ECM) and the concurrent infiltration of immune cells into the aortic wall. To assess if MB PDT affects the extracellular matrix (ECM) of the aortic aneurysms, cross-sections of the aneurysms of the above mice which have undergone AAA induction and concurrently treated with MB PDT and the respective controls were stained with Verhoeff-Van Gieson (VVG) for elastin, Massons Trichrome for collagen and CD3 antibody for T-cells and CD68 antibody for macrophages for immune cell infiltration (FIG. 2A). […] Similarly, a compensatory effect of collagen expression into the elastin layer was observed (pointed by arrows) after PDT treatment compared to both vehicle-treated positive controls and sham controls. […] To assess if T-cells and macrophage infiltration is modulated in aneurysms upon treatment with MB PDT, the aneurysm cross-sections were stained for CD3 and CD68, markers for T-cells and macrophages, respectively. CD3 and CD68 staining were reduced after MB PDT treatment compared to vehicle treated controls (FIG. 2A). […] To confirm if there is an improvement in elastin degradation, clinical scoring as per an established protocol was performed by blinded investigators. […] To assess if this benefit on elastin degradation and immune cell infiltration was due to any systemic decrease in circulating cytokine levels known to be associated with aneurysm growth, cytokines such as IL-1B, IL-6 and IL-10, serum cytokine levels were measured.
Fresh tissue was fixed in 10% neutral buffered formalin (Azer Scientific, PFNBF-90) for 24 hours before being transferred to 70% EtOH. […] After paraffin embedding, sections were cut at 5 um for staining (AML Laboratories). Sections were then stained with H&E (VWR 95057-844, 95057-848), Van Gieson (Statlab Medical Products, KTVELLT), and Masson's Trichrome (CP Lab Chemicals, TRM-500). For IHC, standard immunohistochemistry procedures for 5 μm-thick aorta sections were used. In brief, after deparaffinization, endogenous peroxidase activity was quenched by placing the slides into 3% hydrogen peroxide (H2O2) for 10 min. Sections were immersed in preheated 10 mM citric acid (VWR., Radnor, PA., USA), pH 6.0, for 30 min and cooled in cold water. Sections were then blocked in 5% goat serum (Vector Laboratories, Burlingame, Calif., USA) for 20 min before being incubated overnight at 4° C. in a solution of rabbit anti-CD3 (0.4 μg/ml; ab5690; Abcam, Cambridge, MA., USA) antibody, rabbit anti-CD31 (ERP1729; 0.4 μg/ml; ab182981; Abcam) antibody, rabbit alpha smooth muscle Actin (SMA; 0.067 μg/ml; ab5694; Abcam), rabbit anti-CD68 (ERP23917; 2.0 μg/ml; ab283667; Abcam), and rabbit anti-Interleukin-1 receptor type 1 (IL1R1; 2.0 μg/ml; PAS-98766; Thermo Fisher, Eugene, OR., USA) in PBS. The next day, the sections were exposed to the biotinylated biotinylated goat-anti-rabbit IgG secondary antibody (15 μg/ml; Vector Laboratories) in PBS for 1 h followed by avidin-biotin complex for 1 h (1:200, ABC; Vector Laboratories). The reactions were visualized with 3,3′-diaminobenzidine (Millipore-Sigma) for 10 min and counterstained with Gill's Haematoxylin (Thermo Scientific) for 30 seconds. Finally, the sections were dehydrated, cleared in xylene and cover slipped. […]
For quantification of elastin using Van Gieson, an elastin scoring guide was used. […]

IL-1B, IL-6 and IL-10 = assay: Serum cytokine ELISAs after MB PDT; type: in vivo, mice; settings: MB PDT vs controls
Description: The formation and progression of AAA can be characterized by the degradation of the extracellular matrix (ECM) and the concurrent infiltration of immune cells into the aortic wall. To assess if MB PDT affects the extracellular matrix (ECM) of the aortic aneurysms, cross-sections of the aneurysms of the above mice which have undergone AAA induction and concurrently treated with MB PDT and the respective controls were stained with Verhoeff-Van Gieson (VVG) for elastin, Massons Trichrome for collagen and CD3 antibody for T-cells and CD68 antibody for macrophages for immune cell infiltration (FIG. 2A). […] Similarly, a compensatory effect of collagen expression into the elastin layer was observed (pointed by arrows) after PDT treatment compared to both vehicle-treated positive controls and sham controls. […] To assess if T-cells and macrophage infiltration is modulated in aneurysms upon treatment with MB PDT, the aneurysm cross-sections were stained for CD3 and CD68, markers for T-cells and macrophages, respectively. CD3 and CD68 staining were reduced after MB PDT treatment compared to vehicle treated controls (FIG. 2A). […] To assess if this benefit on elastin degradation and immune cell infiltration was due to any systemic decrease in circulating cytokine levels known to be associated with aneurysm growth, cytokines such as IL-1B, IL-6 and IL-10, serum cytokine levels were measured. […]

established AAAs = assay: MB PDT on pre-established and progressive aneurysms 21 days after induction surgery; type: in vivo, mice
Description: The photosensitizer dye methylene blue (M291-100) was used for photodynamic therapy treatment (MB-PDT). MB-PDT was applied at two time points during the experiment. To test the effect of MB-PDT on AAA formation, MB-PDT was done directly after the PPE saline wash (PODO). To investigate the effect of MB-PDT on AAA growth, Laparotomy and MB-PDT was performed 21 days postoperatively, covering the whole aneurysm (POD21). MB-PDT involves applying 10 ul of 10:1 MB Solution in DPBS (M291-100:21-030-CV) topically to the whole aneurysm, which was carefully dissected from surrounding tissue. Gauze was placed on either side of the aneurysm to absorb excess MB. The aneurysm was then irradiated for 25 min at an irradiance of 30 mW/cm^2 and fluence of 45 J/cm^2 (660 nm LED, Thor M660L4). Throughout the course of irradiation, 5 ul of MB was applied to the aneurysm every 2.5 min to prevent the tissue from drying out. After irradiation, the MB was washed with two changes of sterile saline. For the MB only group, the total amount of MB was applied topically to the aneurysm for five minutes and washed. For the light only group, the aneurysm was irradiated for 25 min, with 5 ul of sterile saline applied every 2.5 min to prevent tissue desiccation. For POD21 positive controls, a laparotomy was performed with no additional treatment.
Aneurysm size was tracked by weekly ultrasound surveillance.
In certain instances, AAA often goes undiagnosed or is diagnosed late, thus it is important to know if MB PDT can not only prevent AAA formation but also reduce or arrest progressive aneurysm growth. To evaluate the efficacy of MB PDT to inhibit the progression of AAA, MB PDT was administered to mice with pre-established and progressive aneurysms 21 days after the initial aneurysm induction surgery with elastase. […] Similar to the measurements done in the study of MB PDT upon AAA induction in FIG. 1, the maximum aortic diameters were measured using ultrasound, averaging anterior-posterior (AP) and transverse (TRV) dimensions for accuracy. […]

[2] = Ex vivo elastase degradation assay with VVG staining; design: species or system pigs; settings: MB PDT 20 min irradiance of 150 mW/cm^2, before recombinant elastase; vs Veh only
Description: Human and porcine aorta were thawed from −80 C to RT. Tissue was then cut into ~1 cm×1 cm squares and briefly rinsed with HBSS. Tissues were then split into two groups: control and PDT. Control tissues were kept in HBSS at RT for one hour, and treated tissues were subjected to 150 mW NIR light for 20 mins in 100 μg/ml methylene blue, with the lumen side facing the light. Then each group was further split into two groups, no elastase and elastase treatment. Treatment involved a 2 hour incubation at 37 C in 10% Porcine Pancreatic Elastase (E1250-25 MG). After treatment all tissues were briefly rinsed, dried on a paper towel, and frozen in OCT. Tissue was sectioned at 10 μm by cryotome for the cross-section and stained using Van Gieson (Statlab KTVELLT). Images were taken at 20× and 100× on a Keyence BZ-X700 Fluorescence Microscope.
To assess if MB PDT can protect aortic tissue from elastase-induce extracellular matrix degradation, aortic tissue were procured from pigs and subjected to MB PDT (20 min irradiance of 150 mW/cm^2) or Veh only treatment ex vivo before recombinant elastase treatment. Comparative analysis of the cross-sections of these tissues were sought to ascertain the consistency of PDT's protective effects across different biological species. […]

Recombinant Tropoelastin = biological target: T1, Recombinant Tropoelastin (Homo sapiens, UniProt P15502); assay: CML levels in recombinant tropoelastin treated with MB PDT; type: biochemical; settings: MB PDT vs untreated tropoelastin and methylene blue without light
T1 sequence (P15502 27-786): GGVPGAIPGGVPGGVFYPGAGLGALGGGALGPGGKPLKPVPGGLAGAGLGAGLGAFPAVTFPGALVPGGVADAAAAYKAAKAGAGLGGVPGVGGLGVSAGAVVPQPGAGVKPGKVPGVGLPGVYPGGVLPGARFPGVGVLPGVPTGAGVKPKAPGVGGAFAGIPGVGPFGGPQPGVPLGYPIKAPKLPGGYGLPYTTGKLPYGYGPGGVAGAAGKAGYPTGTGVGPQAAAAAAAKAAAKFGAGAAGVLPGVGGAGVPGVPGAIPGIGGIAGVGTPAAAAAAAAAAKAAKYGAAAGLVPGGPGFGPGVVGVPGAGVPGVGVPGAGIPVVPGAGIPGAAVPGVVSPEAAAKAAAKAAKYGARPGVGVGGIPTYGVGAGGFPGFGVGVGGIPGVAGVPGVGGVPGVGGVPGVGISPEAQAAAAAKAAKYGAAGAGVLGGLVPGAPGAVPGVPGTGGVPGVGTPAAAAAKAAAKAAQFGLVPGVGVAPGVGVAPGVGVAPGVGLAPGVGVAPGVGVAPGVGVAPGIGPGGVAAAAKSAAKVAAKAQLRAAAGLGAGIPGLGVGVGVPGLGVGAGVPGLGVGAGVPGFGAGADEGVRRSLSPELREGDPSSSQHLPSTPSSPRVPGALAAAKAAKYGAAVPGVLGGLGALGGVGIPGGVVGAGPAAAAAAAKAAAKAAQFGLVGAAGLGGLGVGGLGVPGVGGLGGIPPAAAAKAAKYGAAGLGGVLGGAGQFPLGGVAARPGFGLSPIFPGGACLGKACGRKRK

[3] = system: total elastin in porcine tissue; assay: CML modification levels of total elastin in porcine tissue; settings: MB PDT vs untreated samples and pentagalloyl glucose; less than glutaraldehyde
[4] = Tissue rigidity assay (forceps test), healthy mouse aortic tissue ex vivo; design: species or system mice; settings: MB PDT ex vivo
Description: (§1) (FIG. 7A). The stiffness maximized at 120 mins exposure for mouse tissue. […] To assess if this benefit of MB PDT on mechanical strength is true in a pathological setting, MB PDT treatment was done of on mouse aneurysms in vivo and the stiffness was assessed ex vivo (FIG. 7C).
(§2) Mouse aneurysms and aortic tissue were treated with MB PDT and vehicle in vivo and ex vivo.

mouse aneurysms = assay: Tissue rigidity assay, mouse aneurysms treated in vivo, stiffness assessed ex vivo; settings: post-MB PDT in vivo vs vehicle treatment controls
Description: as §1, §2

[5] = Tissue rigidity assay, porcine aorta ex vivo
[6] = after MB PDT vs vehicle treated controls

resistance to elastase-induced ECM degradation (VVG elastin staining) [2]: significant resistance
CML levels (Recombinant Tropoelastin): significant increase
degradation on incubation with recombinant elastase ([5]; porcine aorta after MB PDT, more resistance at higher light intensity (60 mW versus 120 mW)): resistant to degradation
SMILES: CN(C)c1ccc2nc3ccc(N(C)C)cc3[s+]c2c1 [MB, methylene blue]
elastin degradation, clinical scoring by blinded investigators ([1]; MB PDT treated group): trend towards improvement
CD3 staining (T-cells) [1, 6]: reduced
CD68 staining (macrophages) [1, 6]: reduced
elastin degradation (VVG staining) [1, 6]: reduction of elastin degradation
collagen degradation in the adventitia (Massons Trichrome) ([1]; after PDT vs vehicle treated controls and sham mice): less collagen degradation
serum cytokine levels (IL-1B, IL-6, IL-10) (IL-1B, IL-6 and IL-10): No significant differences
aneurysm diameter on week 9 (established AAAs; MB PDT on day 21, vs vehicle treated group): decrease
enlargement of established AAAs (weekly ultrasound) (established AAAs; MB PDT on day 21 post-induction, vs vehicle-treated controls): significantly reduced
morphological images and micrometric measurements of AAAs (established AAAs; treated vs vehicle): marked differences
CML modification levels [3]: significant increase
light exposure at which stiffness maximized [4]: 120 min
vascular stiffness (forceps test) [4]: increased with duration of light exposure
stiffness of the aneurysm (mouse aneurysms): clear improvement
stiffness benefit in porcine aorta ([5]; MB PDT, exposure requirement higher, visually less striking): consistent

— patent publication US20260232817A1, “Activatable Drug Conjugates and Therapeutic Applications Thereof” (California Institute of Technology, priority 2023, published 2026)
